In general, IC50 refers to the concentration needed to halve the response being measured.

“Also recorded” adds a separate entry of the source. Residues, ends and D or L forms follow the SMILES beside them.

The test system of data set [1] is murine myometrial tissue (KCl-induced tension). As to the kind of experiment: mean tension induced by KCl (positive control) in mouse myometrial tissue. To be noted: post-partum mouse myometrial tissue. Also on record: species or system mouse (CD-1). The method, then:
(§1) All the peptides were initially tested in an ex vivo mouse myometrial tissue contraction assay. Contractile activity was measured on tissue that was harvested post-partum and treated with prostaglandin F2α (PGFα) alone (control) or in the presence of peptides L-4b-4g, L-7, and L-8. […] Mean tension induced by KCl (as a positive control) was not affected by L-4d.
The uterus from the CD-1 mouse was obtained from the animal immediately after term delivery under anesthesia (2.5% isoflurane). Briefly, a midline abdominal incision was made and the uterine horns were rapidly excised, cleansed carefully of the surrounding connective tissues, and removed. Longitudinal myometrial strips (2 to 3 mm wide and 1 cm long) were dissected free from the uterus and mounted isometrically in organ tissue baths. The initial tension was set at 2 g. […] Isometric tension was measured by a force transducer and recorded by a BIOPAC data acquisition system (BIOPAC MP150, Montreal, PQ, Canada). […] Mean tension of spontaneous contractions was measured using a BIOPAC digital polygraph system (AcqKnowledge); the same parameters were also determined after addition of PGF2α in the presence or the absence of a 20 min-pretreatment with different FP inhibitors. […] Changes in mean tension (g) were expressed as percentages of the initial reference response (% of baseline).

The test system of data set [2] is LPS-induced preterm delivery in pregnant CD-1 mice. As to the kind of experiment: LPS-induced mouse preterm birth (PTB) model. The class given is in vivo, mouse (CD-1). To be noted: gestational day 16, LPS 10 μg/animal i.p., L-4d 20 mg/day/animal by s.c. osmotic pump after 0.1 mg/animal i.p. bolus, n = 5 (saline n = 4). The method, then: (§2) The ability of peptide L-4d to delay labor in vivo was next tested in mice near term and treated with lipopolysaccharide (LPS) Escherichia coli endotoxin, as a pathogen associated molecular pattern, which is known to promote a general inflammatory state resulting in prostaglandin synthesis and induced premature delivery. Following LPS injection into mice (n = 4–5) at gestational day 16, all the animals tested delivered within 12−24 h.
Timed-pregnant CD-1 mice at 16 days gestation (normal term is 19.2 days) were anesthetized with isoflurane (2%). Primed osmotic pumps (Alzet pump, Alzet, Cupertino, CA) containing either saline (n = 4) or compound L-4d (20 mg/day/animal, n = 5) were respectively subcutaneously implanted on the backs of the animals; infusion of peptide was immediately preceded by bolus injection of peptide (0.1 mg/animal intraperitoneally). Within 15 min after placement of the pumps, animals were injected with lipopolysaccharide (LPS) Escherichia coli endotoxin (10 μg/animal intraperitoneally) to mimic the inflammatory/infectious component of human preterm labor. Animals were inspected every hour for the first 18 h and every 2 h thereafter to document the timing of birth. Results are expressed as percentages of animals delivered following the injection of LPS [57]. […]

A short description of data set [3]: serum stability study (mouse serum/plasma, MS/MS). The class given is in vitro ADME. The following applies: mouse plasma (method: serum), 37 °C, incubation up to 2 hours, LC-MS/MS, internal standard L-4f. The method, then: Peptide L-4d was further examined for stability in serum and compared to L-PDC31. The two peptides were incubated at 37 °C in mouse plasma. Aliquots were removed at different time intervals and analyzed by mass spectrometry (MS/MS) to detect remaining amount of peptide (Figure 3).
Serum was […] and kept on ice throughout the procedure. Two blanks were prepared by adding 5 µL of DMSO to 95 µL of serum. These were incubated for 2 h and submitted to the same treatment as the other samples. Two series of vials containing 95 µL of serum were prepared and spiked with either 5 µL of L-PDC31 [0.4 mM] or L-4d [0.4 mM], and incubated for 120, 60, 30, 15, 10 and 5 min, respectively, after which 100 µL of 4% phosphoric acid was added. Two vials were also spiked with 5 µL L-PDC31 and L-4d, respectively, and immediately treated with phosphoric acid (time = 0 min). The vials were incubated for 5 min at 95 °C, cooled on ice for 2 min, treated with 600 µL of cold MeCN containing L-4f (0.02 mM) as internal standard, and incubated at –20 °C overnight. After the incubation period, the vials were vortexed for 2 min and centrifuged at 4 °C for 15 min. The supernatant was transferred into LC-MS vials and analyzed.
Results were expressed as: (AN/IS/AN0/IS0)∗100
AN and IS refer, respectively, to the analyte and internal standard MS signals. Both values are compared with initial injection at which time AN0 and IS0 were not incubated.

For data set [4], the system named is murine myometrial tissue (PGF2α-induced contractions; FP). As to the kind of experiment: ex vivo mouse myometrial tissue contraction assay (PGF2α-induced). The following applies: post-partum CD-1 mouse myometrial strips, Krebs buffer pH 7.4, 37 °C, 20 min pretreatment with peptide at two concentrations, then PGF2α; 4–6 experiments per group, means ± SEM, t-test, p < 0.05 vs vehicle. Also on record: species or system mouse (CD-1). The method, then: as §1
Pregnant CD-1 mice (16-17 days gestation, term 19 days) were obtained from Charles River Inc. and used according to a protocol of the Animal Care Committee of Hôpital Sainte-Justine according to the principles of the Guide for the Care and Use of Experimental Animals of the Canadian Council on Animal Care. The animals were maintained on standard laboratory chow under a 12:12 light:dark cycle and allowed free access to chow and water.
The uterus from the CD-1 mouse was obtained from the animal immediately after term delivery under anesthesia (2.5% isoflurane). Briefly, a midline abdominal incision was made and the uterine horns were rapidly excised, cleansed carefully of the surrounding connective tissues, and removed. Longitudinal myometrial strips (2 to 3 mm wide and 1 cm long) were dissected free from the uterus and mounted isometrically in organ tissue baths. The initial tension was set at 2 g. The tissue baths contained 20 mL of Krebs buffer of the following composition (in mM): 118 NaCl, 4.7 KCl, 2.5 CaCl2, 0.9 MgSO4, 1 KH2PO4, 11.1 glucose, and 23 NaHCO3 (pH 7.4). The buffer was equilibrated with 95% oxygen/5% carbon dioxide at 37 °C. Isometric tension was measured by a force transducer and recorded by a BIOPAC data acquisition system (BIOPAC MP150, Montreal, PQ, Canada). Experiments were begun after 1 h equilibration. Mean tension of spontaneous contractions was measured using a BIOPAC digital polygraph system (AcqKnowledge); the same parameters were also determined after addition of PGF2α in the presence or the absence of a 20 min-pretreatment with different FP inhibitors. At the start of each experiment, mean tension of spontaneous myometrial contractions was considered as a reference response. Changes in mean tension (g) were expressed as percentages of the initial reference response (% of baseline).
At the start of each experiments, mean tension of spontaneous myometrial contractions was considered as a reference response. Increase in mean tension (%) was expressed as percentages of (X/Y)-100, where X is the change in mean tension (g) induced by PGF2α and Y is the initial reference response (g). Data are representative of 4–6 experiments per treated group. All results are expressed as means ± SEM and were compared by Independent t-tests. Statistical tests were performed with GraphPad Prism 4.3 software and p < 0.05 was considered statistically significant.

In data set [5] the test system is prostaglandin F2α receptor (FP). To be noted: FP inhibition, cited from earlier work. The method, then:
The development of PDC31 originated from a library of sequences based on the second extracellular loop of FP. Short lead peptides were analyzed initially using in vitro and ex vivo analyses. […] Moreover, addition of the dodecyl chain enhanced plasma stability.

Data set [6] relates to murine myometrial tissue (PGF2α-induced contractions; FP). To be noted: cited from earlier work. The source says:
Moreover, addition of the dodecyl chain enhanced plasma stability.

In data set [7] the test system is LPS-induced preterm delivery in pregnant CD-1 mice. To be noted: cited from earlier work. The method, then:
as §2

The test system of data set [8] is intrauterine pressure and pain in women with primary dysmenorrhea. To be noted: phase Ib; cited from earlier work. The source says:
The prostaglandin F2α receptor (FP) is a promising target for delaying labor because of its relevant involvement in parturition. At the beginning of labor and preterm labor, FP expression increases. […] Targeting FP, the tocolytic prototype PDC31 is currently undergoing clinical trials.

For the molecule `CCCCCCCCCCCCN[C@H](C(=O)N[C@@H](CC(C)C)C(=O)NCC(=O)N[C@@H](Cc1c[nH]cn1)C(=O)N[C@@H](CCCNC(N)=O)C(=O)N[C@@H](CC(=O)O)C(=O)N[C@@H](Cc1ccc(O)cc1)C(=O)N[C@@H](CCCCN)C(=O)O)[C@@H](C)CC` [L-4d, N-Dodecyl-Ile-Leu-Gly-His-Cit-Asp-Tyr-Lys-OH] (HELM PEPTIDE1{[CCCCCCCCCCCCN[C@H](C(=O)[*:2])[C@@H](C)CC].L.G.H.[Cit].D.Y.K}$$$$V2.0), the “effect on mean tension induced by KCl (positive control)” value in data set [1] was “not affected”. Further, the “ability to delay labor (time of delivery) in LPS-induced PTB model” value in data set [2] is “unable to exhibit a statistically significant reduction in the time of delivery; also recorded: failed to prolong labor in vivo; also recorded: inactive in vivo; also recorded: no significant ability to delay labor”. Moreover, the “stability in mouse plasma, in words” value in data set [3] is listed as “still present after 2 hours of incubation”. Besides, in data set [4], the “effect on PGF2α-induced contractions (mean tension) of myometrial tissue” value is “significant reduction of contractions; also recorded: able to reduce uterine contractions induced by PGF2α; also recorded: significant reduction of PGF2α-induced contractility”.
“H-ile-leu-Gly-his-cit-asp-tyr-lys-OH [PDC31]”: the efficacy in data set [5] is recorded as over 85%. Besides, the IC50 in data set [5] (read-out: potency (IC50)) was 13 nM. For the same molecule, the “effect on spontaneous and PGF2α-induced contractions in postpartum mice myometrium” value in data set [6] was “reduce both the strength and length of spontaneous and PGF2α-induced contractions”. Also, the “ability to delay labor in the PTB model” value in data set [7] is on record as “delay labor”. In data set [8], the “safety and effect on intrauterine pressure and pain” value is “safe in reducing intrauterine pressure and pain associated with excessive uterine contractility”.

Source of the values: publication PMC6891598, “Application of N-Dodecyl L-Peptide to Enhance Serum Stability while Maintaining Inhibitory Effects on Myometrial Contractions Ex Vivo” (Molecules, 2019).
